# Data reported in patent US8134015B2, “Compound inhibiting in vivo phosphorous transport and medicine containing the same” (Kyowa Hakko Kirin Co., Ltd., priority 2003, dated 2012).
# Counter-ions that a name gives are not always drawn.
# Target: T1, rat NaPi-2b (Rattus norvegicus, UniProt Q9JJ09)
# T1 construct: expressed in transfected cells; host or cells: Xenopus oocytes injected with cRNA
# T1 sequence (Q9JJ09 1-695): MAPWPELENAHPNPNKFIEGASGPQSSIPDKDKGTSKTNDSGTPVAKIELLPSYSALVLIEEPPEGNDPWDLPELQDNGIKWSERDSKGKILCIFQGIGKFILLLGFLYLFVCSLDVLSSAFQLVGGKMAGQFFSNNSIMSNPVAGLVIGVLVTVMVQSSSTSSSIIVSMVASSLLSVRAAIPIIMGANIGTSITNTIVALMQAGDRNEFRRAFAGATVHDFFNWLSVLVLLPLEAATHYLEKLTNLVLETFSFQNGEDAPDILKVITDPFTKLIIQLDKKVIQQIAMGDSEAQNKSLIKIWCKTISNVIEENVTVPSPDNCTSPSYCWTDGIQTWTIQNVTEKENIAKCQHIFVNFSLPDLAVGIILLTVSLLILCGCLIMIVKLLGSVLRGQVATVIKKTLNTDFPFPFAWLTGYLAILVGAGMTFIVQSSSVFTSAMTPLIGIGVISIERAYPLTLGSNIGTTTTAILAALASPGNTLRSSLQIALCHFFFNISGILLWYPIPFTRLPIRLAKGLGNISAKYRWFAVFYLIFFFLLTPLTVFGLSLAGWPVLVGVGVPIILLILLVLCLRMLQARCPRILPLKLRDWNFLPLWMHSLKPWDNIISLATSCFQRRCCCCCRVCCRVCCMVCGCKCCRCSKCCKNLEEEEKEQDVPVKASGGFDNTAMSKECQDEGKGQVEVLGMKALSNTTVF
# Assay: Sodium-dependent phosphate uptake of Xenopus oocytes which expressed NaPi-2b (32P)
# Format: cell-based
# Settings: for IC50: Xenopus oocytes expressing rat NaPi-2b, 32P radioactive phosphorus, read-out: IC50 (phosphate uptake inhibitory activity); for inhibition at 300 µM: phosphate uptake, oocytes expressing rat NaPi-2b, determined from inhibition curve
# Procedure, shortened: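 Percent inhibition at 300 μM and 100 μM comes from the same inhibition curve of 32P uptake. Assay used oocytes expressing rat NaPi-2b after 2 days of culture.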
SMILES,IC50,inhibition at 300 µM
"COc1ccc(C(=O)Nc2ccccc2C(=O)N/N=C/c2ccc(C)o2)cc1OC [Compound 22, 3,4-Dimethoxy-N-[2-(5-methyl-furan-2-ylmethylene-hydrazinocarbonyl)-phenyl]-benzamide]",26.7 µM,–
"CN(CCCCCCN(C)Cc1cccc(C(=O)Nc2ccc(Cl)cc2C(=O)N/N=C/c2cccc(F)c2)c1)Cc1cccc(C(=O)Nc2ccc(Cl)cc2C(=O)N/N=C/c2cccc(F)c2)c1 [Compound 704, N1-[4-Chloro-2-({2-[(E)-1-(3-fluorophenyl)methylidene]hydrazino}carbonyl}phenyl}-3-{[{6-[(3-{[4-chloro-2-({2-[(E)-1-(3-fluorophenyl)methylidene]hydrazino}carbonyl}-anilino}carbonyl}benzyl}(methyl)amino)hexyl)(methyl)amino]methyl]-benzamide]",–,46.6%
"COc1ccc(C(=O)Nc2ccc(Cl)cc2C(=O)N/N=C/c2cccc(C)c2)cc1OC [Compound 67, N-[4-Chloro-2-(3-methyl-benzylidene-hydrazinocarbonyl)-phenyl]-3,4-dimethoxy-benzamide]",0.65 µM,–
"Cc1csc(NC(=O)c2cccc(CSc3nc[nH]n3)c2)c1C(=O)N/N=C/c1ccc(F)cc1 [Compound 553, N-[3-(4-Fluoro-benzylidene-hydrazinocarbonyl)-4-methyl-thiophen-2-yl]-3-(1H-[1,2,4]triazol-3-ylsulfanylmethyl)-benzamide]",2.8 µM,–
"CCN(CC)CCN(CCN(CC)CC)Cc1cccc(C(=O)Nc2sc3c(c2C(=O)N/N=C/c2ccc(Cl)c(C(F)(F)F)c2)CCCC3)c1 [Compound 855, 3-{[Bis-(2-diethylamino-ethyl)-amino]-methyl}-N-[3-(4-chloro-3-trifluoromethyl-benzylidene-hydrazinocarbonyl)-4,5,6,7-tetrahydro-benzo[b]thiophen-2-yl]-benzamide; hydrochloride]",1.75 µM,–
"Cc1csc(NC(=O)c2cccc(CSc3nc[nH]n3)c2)c1C(=O)N/N=C/c1ccc(Cl)c(C(F)(F)F)c1 [Compound 555, N-[3-(4-Chloro-3-trifluoromethyl-benzylidene-hydrazinocarbonyl)-4-methyl-thiophen-2-yl]-3-(1H-[1,2,4]triazol-3-ylsulfanylmethyl)-benzamide]",< 3 µM,–
"O=C(Nc1ccc(Br)cc1C(=O)N/N=C/c1cccc(F)c1)c1ccc(CNCCN2CCOCC2)cc1 [Compound 713, N-[4-Bromo-2-(3-fluoro-benzylidene-hydrazinocarbonyl)-phenyl]-4-[(2-morpholin-4-yl-ethylamino)-methyl]-benzamide]",15.5 µM,–
"Cc1csc(C(=O)N/N=C/c2cccc(F)c2)c1NC(=O)c1cccc(CN2CCC(O)CC2)c1 [Compound 542, N-[2-(3-Fluoro-benzylidene-hydrazinocarbonyl)-4-methyl-thiophen-3-yl]-3-(4-hydroxy-piperidin-1-ylmethyl)-benzamide]",–,41.1%
"Cc1ccc(/C=N/NC(=O)c2sc(C(C)(C)C)cc2NC(=O)c2cccc(CN3CCN(CCO)CC3)c2)cc1C [Compound 991, N-[5-Tert-butyl-2-(3,4-dimethyl-benzylidene-hydrazinocarbonyl)-thiophen-3-yl]-3-[4-(2-hydroxy-ethyl)-piperazin-1-ylmethyl]-benzamide]",–,30.1%
"CCN(CC)CCNCc1cccc(C(=O)Nc2sc3c(c2C(=O)N/N=C/c2ccc(OC)cc2)CCC3)c1 [Compound 815, 3-[(2-Diethylamino-ethylamino)-methyl]-N-[3-(4-methoxy-benzylidene-hydrazinocarbonyl)-5,6-dihydro-4H-cyclopenta[b]thiophen-2-yl]-benzamide]",16.7 µM,–
"COc1ccc(C(=O)Nc2ccc(C)cc2C(=O)N/N=C/c2cccc(C)c2)cc1OC [Compound 148, 3,4-Dimethoxy-N-[4-methyl-2-(3-methyl-benzylidene-hydrazinocarbonyl)-phenyl]-benzamide]",15.6 µM,–
"COc1ccc(C(=O)Nc2ccc(Cl)cc2C(=O)N/N=C/c2cccc(F)c2)cc1OC [Compound 65, N-[4-Chloro-2-(3-fluoro-benzylidene-hydrazinocarbonyl)-phenyl]-3,4-dimethoxy-benzamide]",1.29 µM,–
"O=c1c2cc(Br)ccc2nc(-c2cccc(CSCCO)c2)n1/N=C/c1ccc(F)cc1 [Compound 695, 6-Bromo-3-[(4-fluoro-benzylidene-)-amino]-2-[3-(2-hydroxy-ethylsulfanylmethyl)-phenyl]-3H-quinazolin-4-one]",6.76 µM,–
"COc1ccc(C(=O)Nc2ccccc2C(=O)N/N=C/c2cc(C(C)(C)C)c(O)c(C(C)(C)C)c2)cc1OC [Compound 6, N-[2-(3,5-Di-tert-butyl-4-hydroxy-benzylidene-hydrazinocarbonyl)-phenyl]-3,4-dimethoxy-benzamide]",5.38 µM,–
"O=c1c2c3c(sc2nc(-c2cccc(CSc4nc[nH]n4)c2)n1/N=C/c1ccc(F)cc1)CCCC3 [Compound 648, 3-[(4-Fluoro-benzylidene-)-amino]-2-[3-(1H-[1,2,4]triazol-3-ylsulfanylmethyl)-phenyl]-5,6,7,8-tetrahydro-3H-benzo[4,5]thieno[2,3-d]pyrimidin-4-one]",2.04 µM,–
"CCN1CC(NCc2ccc(-c3nc4ccc(Br)cc4c(=O)n3/N=C/c3ccc(OC)cc3)cc2)CN1CC [Compound 755, 6-Bromo-2-{4-[(1,2-diethyl-pyrazolidin-4-ylamino)-methyl]-phenyl}-3-[(4-methoxy-benzylidene)-amino]-3H-quinazolin-4-one]",–,67.3%
"CCN(CC)CCN(C)Cc1cccc(C(=O)Nc2scc(C)c2C(=O)N/N=C/c2ccc(C)cc2)c1 [Compound 564, 3-{[(2-Diethylamino-ethyl)-methyl-amino]-methyl}-N-[4-methyl-3-(4-methyl-benzylidene-hydrazinocarbonyl)-thiophen-2-yl]-benzamide]",11.6 µM,–
"O=C(Nc1sc2c(c1C(=O)N/N=C/c1ccc(Cl)c(C(F)(F)F)c1)CCCC2)c1cccc(CSCCCO)c1 [Compound 608, N-[3-(4-Chloro-3-trifluoromethyl-benzylidene-hydrazinocarbonyl)-4,5,6,7-tetrahydro-benzo[b]thiophen-2-yl]-3-(3-hydroxy-propylsulfanylmethyl)-benzamide]",< 0.3 µM,–

# Results, then the compound that gave them:
IC50,inhibition at 300 µM,SMILES
38.8 µM,–,"Cc1ccc(/C=N/NC(=O)c2cc(Cl)ccc2NC(=O)c2cccc(CSCCS(=O)(=O)O)c2)cc1C [Compound 694, 2-{3-[4-Chloro-2-(3,4-dimethyl-benzylidene-hydrazinocarbonyl)-phenylcarbamoyl]-benzylsulfanyl}-ethanesulfonic acid]"
7.82 µM,–,"Cc1cccc(/C=N/NC(=O)c2cc(Br)ccc2NC(=O)c2ccc(CN3CCC(N4CCCCC4)CC3)cc2)c1 [Compound 310, 4-[1,4′]Bipiperidinyl-1′-ylmethyl-N-[4-bromo-2-(3-methyl-benzylidene-hydrazinocarbonyl)-phenyl]-benzamide]"
14.8 µM,–,"COc1ccc(/C=N/NC(=O)c2cc(N3CCCCC3)ccc2NC(=O)c2cccc(CSCC(=O)O)c2)cc1 [Compound 892, {3-[2-(4-Methoxy-benzylidene-hydrazinocarbonyl)-4-piperidin-1-yl-phenylcarbamoyl]-benzylsulfanyl}-acetic acid]"
< 1 µM,–,"COc1ccc(/C=N/NC(=O)c2cc(N3CCSCC3)ccc2NC(=O)c2cccc(CSCCO)c2)cc1 [Compound 928, 3-(2-Hydroxy-ethylsulfanylmethyl)-N-[2-(4-methoxy-benzylidene-hydrazinocarbonyl)-4-thiomorpholin-4-yl-phenyl]-benzamide]"
3.57 µM,–,"Cc1ccc(/C=N/NC(=O)c2cc(Br)ccc2NC(=O)c2cccnc2)cc1 [Compound 175, N-[4-Bromo-2-(4-methyl-benzylidene-hydrazinocarbonyl)-phenyl]-nicotinamide]"
3.88 µM,–,"CN1CCN(c2ccc(NC(=O)c3cccc(CSCCO)c3)c(C(=O)N/N=C/c3ccc(Cl)c(C(F)(F)F)c3)c2)CC1 [Compound 1072, N-[2-(4-Chloro-3-trifluoromethyl-benzylidene-hydrazinocarbonyl)-4-(4-methyl-piperazin-1-yl)-phenyl]-3-(2-hydroxy-ethylsulfanylmethyl)-benzamide]"
–,45%,"COc1ccc(/C=N/NC(=O)c2cc(N3CCCC3=O)ccc2NC(=O)c2cccc(CN(CC(C)O)CC(C)O)c2)cc1 (stereo not drawn) [Compound 946, 3-{[Bis-(2-hydroxy-propyl)-amino]-methyl}-N-[2-(4-methoxy-benzylidene-hydrazinocarbonyl)-4-(2-oxo-pyrrolidin-1-yl)-phenyl]-benzamide]"
1.15 µM,–,"O=C(Nc1ccc(Br)cc1C(=O)N/N=C/c1cccc(F)c1)c1ccc(CN2CCC(O)CC2)cc1 [Compound 328, N-[4-Bromo-2-(3-fluoro-benzylidene-hydrazinocarbonyl)-phenyl]-4-(4-hydroxy-piperidin-1-ylmethyl)-benzamide]"
< 1 µM,–,"Cc1cccc(/C=N/NC(=O)c2cc(Br)ccc2NC(=O)c2ccc(CSCCO)cc2)c1 [Compound 263, N-[4-Bromo-2-(3-methyl-benzylidene-hydrazinocarbonyl)-phenyl]-4-(2-hydroxy-ethylsulfanylmethyl)-benzamide]"
